In US11166924B2, “N-methyl-d-aspartate receptor allosteric modulators and methods for their use” (Qingdao Primedicine Pharmaceutical Company, Ltd., priority 2016, dated 2021):

Assays:
[1] = system: CREB phosphorylation (pCREB); assay: CREB phosphorylation (pCREB) immunoblotting in cortical neurons; format: cell-based, rat; conditions: presence or absence of ifenprodril; FIG. 15a
Method: Dissociated cultures of rat cortical neurons were prepared from 18 day-old Sprague Dawley rat embryos as described previously. To obtain mixed cortical cultures enriched with neurons, uridine (10 μM) and 5-Fluor-2′-deoxyuridine (10 μM) were added to the culture medium at 3 days in vitro (DIV) and maintained for 48 h to inhibit non-neuronal cell proliferation before the cultures were returned to the normal culture medium. Mature neurons (11-14 DIV) were used for experiments. Mouse cortical cultures were prepared using embryos at 18 days post-coitum from litters resulting from heterozygote GluN2A+/− or GluN2B+/− matings. To obtain homozygous and wild-type (WT) littermate control neuronal cultures, cortical cells from individual embryos were plated separately. Genotyping was performed as described previously using tail samples collected from each embryo. To induce neuronal apoptosis, cortical cultures were stimulated with NMDA (50 μM) and glycine (10 μM) for 20 min, or STS (100 nM) for 1 h in Mg2+-free extracellular solution (ECS) containing the following (in mM): 25 HEPES acid, 140 NaCl, 33 glucose, 5.4 KCl, and 1.3 CaCl2, with pH 7.35 and osmolarity 320-330 mOsm. […]

GluN2A NMDARs = assay: NMDAR EPSC in brain slices of wild-type and GluN2A knockout mice; set-up: species or system mouse; conditions: FIG. 20
Method: Male and female wild-type or GluN2A KO mice 20-25-day old were anesthetized using Isoflurane and rapidly decapitated. Brains were removed and immersed for 30 sec in cold (2-4° C.) cutting solution containing: 92 mM NMDG, 2.5 mM KCl, 1.25 mM NaH2PO4, 30 mM NaHCO3, 20 mM HEPES, 4.5 mM D-glucose, 5 mM Na-ascorbate, 3 mM Na-pyruvate, 0.5 mM CaCl2, and 10 mM MgCl2. The brain was blocked in melted 3% agar-A (CAS #9002-18-0, Bio Basic Canada Inc.), then glued onto the slicing platform and sectioned coronally at 320 μm thickness with a vibratome (Leica VT 1000S) containing cold (2-4° C.) bubbled (95% O2/5% CO2) cutting solution. Sections that included the prefrontal cortex were transferred into continuously carbogenated pre-warmed (32-34° C.) cutting solution for a period of 12 min time for initial recovery. […]
A brain slice was transferred onto a recording chamber on an upright Nikon FN1 microscope and the chamber was continuously perfused with 32° C. carbogenated aCSF recording solution containing: 121.85 mM NaCl, 2.5 mM KCl, 1.2 mM NaH2PO4, 24 mM NaHCO3, 12.5 mM D-glucose, 5 mM Na-ascorbate, 3 mM Na-pyruvate, 2 mM CaCl2, 0.1 mM MgCl2. Pyramidal neurons were identified in layer V of the prefrontal cortex via video monitored infra-red differential interference contrast illumination microscopy using a CFI APO 40× W NIR objective (0.80 numerical aperture, 3.5 mm working distance). […]

## CCOc1cc(Cl)c(Cl)c(/C=N/NC(=O)c2ccccc2Br)c1O [Npam43, (E)-2-bromo-N′-(2,3-dichloro-5-ethoxy-6-hydroxybenzylidene)benzohydrazide]
[1]
  CREB phosphorylation (pCREB): increases
GluN2A NMDARs; brain slices of GluN2A KO mice
  Effect on NMDAR EPSC, GluN2A KO mice: no effect
GluN2A NMDARs; brain slices of wild-type mice
  Effect on NMDAR EPSC, WT mice: clear potentiation of NMDAR EPSC
